Experimental data published in patent US20250136586A1, “Substituted 7-(Pyrimidin-4-yl)Quinolin-4(1H)-One Compounds as Cyclin Dependent Kinase Inhibitors” (BeiGene, Ltd., priority 2022, published 2025).

Tests used:
CDK6/Cyclin D3 = CDK6/Cyclin D3 (Homo sapiens (Human), UniProt Q00534); assay: TR-FRET kinase inhibition assay, CDK6/Cyclin D3; format: biochemical; details: 1 mM ATP, 0.15 μM Rb (Ser780)-biotin substrate, read-out: CDK6D3 IC50
In short: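 Kinase preincubated 60 min at room temperature with 0–10 μM compound; reaction started with 1 mM ATP and 0.15 μM Rb (Ser780)-biotin, run 120 min at room temperature in HEPES pH 7.0, 50 mM MgCl2. pRb detected by TR-FRET (665/620 nm ratio); IC50 from four-parameter logistic fit.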

CDK4/Cyclin D1 = CDK4/Cyclin D1 (Homo sapiens (Human), UniProt P11802); assay: TR-FRET kinase inhibition assay, CDK4/Cyclin D1; format: biochemical; details: 1 mM ATP, 0.15 μM Rb (Ser780)-biotin substrate, read-out: CDK4D1 IC50
Chain of CDK4/Cyclin D1 (P11802 whole entry): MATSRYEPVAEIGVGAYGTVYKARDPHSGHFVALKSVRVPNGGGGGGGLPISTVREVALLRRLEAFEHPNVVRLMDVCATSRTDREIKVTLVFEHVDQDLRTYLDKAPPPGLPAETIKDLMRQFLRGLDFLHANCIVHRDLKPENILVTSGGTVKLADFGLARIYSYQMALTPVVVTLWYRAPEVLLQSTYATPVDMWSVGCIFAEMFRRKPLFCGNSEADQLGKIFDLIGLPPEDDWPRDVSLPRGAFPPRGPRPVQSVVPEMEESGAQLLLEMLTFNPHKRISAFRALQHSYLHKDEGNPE
Chain of CDK4/Cyclin D1 (P24385 whole entry partner): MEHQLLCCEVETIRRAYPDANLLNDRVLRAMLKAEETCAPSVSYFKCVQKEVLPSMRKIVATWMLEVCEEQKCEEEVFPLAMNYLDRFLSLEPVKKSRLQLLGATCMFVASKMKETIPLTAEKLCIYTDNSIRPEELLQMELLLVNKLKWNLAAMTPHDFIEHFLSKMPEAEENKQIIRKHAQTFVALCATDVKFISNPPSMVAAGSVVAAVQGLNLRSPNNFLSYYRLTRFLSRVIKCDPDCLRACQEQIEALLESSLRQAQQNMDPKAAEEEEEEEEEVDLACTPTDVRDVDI
In short: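 Kinase was preincubated with compound for 60 min at room temperature, then reacted with ATP and Rb (Ser780)-biotin substrate for 120 min. IC50 came from a four-parameter logistic fit.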

Chain of CDK6/Cyclin D3 (Q00534 whole entry): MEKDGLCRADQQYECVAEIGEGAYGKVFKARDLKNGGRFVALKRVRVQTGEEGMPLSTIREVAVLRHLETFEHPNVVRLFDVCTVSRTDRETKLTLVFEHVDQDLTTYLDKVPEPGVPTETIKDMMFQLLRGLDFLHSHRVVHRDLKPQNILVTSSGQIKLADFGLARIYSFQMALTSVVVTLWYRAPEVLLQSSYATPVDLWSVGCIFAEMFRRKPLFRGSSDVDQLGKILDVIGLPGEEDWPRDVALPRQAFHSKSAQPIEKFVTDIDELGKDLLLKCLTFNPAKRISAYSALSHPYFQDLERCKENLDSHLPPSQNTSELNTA
Chain of CDK6/Cyclin D3 (P30281 whole entry partner): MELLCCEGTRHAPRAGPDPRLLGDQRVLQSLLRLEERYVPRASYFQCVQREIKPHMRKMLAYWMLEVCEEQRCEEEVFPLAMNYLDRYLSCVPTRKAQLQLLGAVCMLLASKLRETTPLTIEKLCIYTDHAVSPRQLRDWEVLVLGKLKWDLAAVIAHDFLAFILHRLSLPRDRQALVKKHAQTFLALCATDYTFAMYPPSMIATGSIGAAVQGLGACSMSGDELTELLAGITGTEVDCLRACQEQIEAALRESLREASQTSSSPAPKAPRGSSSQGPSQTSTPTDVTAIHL

`COc1ccc(NCc2cc(=O)c3ccc(-c4nc(N[C@@H]5CCOC[C@H]5O)ncc4F)cc3n2C(C)C)cc1` [Example 101, 7-(5-fluoro-2-(((3S,4R)-3-hydroxytetrahydro-2H-pyran-4-yl)amino)pyrimidin-4-yl)-1-isopropyl-2-(((4-methoxyphenyl)amino)methyl)quinolin-4(1H)-one] gave an IC50 (CDK6/Cyclin D3) of 0.312 µM and an IC50 (CDK4/Cyclin D1) of 0.026 µM.
In the case of `Cc1c(CN2CC3CCC(C2)O3)n(C(C)C)c2cc(-c3nc(N[C@@H]4CCOC[C@H]4O)ncc3F)ccc2c1=O` [Example 102, 2-((8-oxa-3-azabicyclo[3.2.1]octan-3-yl)methyl)-7-(5-fluoro-2-(((3S,4R)-3-hydroxytetrahydro-2H-pyran-4-yl)amino)pyrimidin-4-yl)-1-isopropyl-3-methylquinolin-4(1H)-one], the IC50 (CDK6/Cyclin D3) is reported as 0.33 µM and the IC50 (CDK4/Cyclin D1) is reported as 0.015 µM.
Molecule `Cc1c(CN2CCC(C)(O)CC2)n(C(C)C)c2cc(-c3nc(N[C@@H]4CCOC[C@H]4O)ncc3F)ccc2c1=O` [Example 103, 7-(5-fluoro-2-(((3S,4R)-3-hydroxytetrahydro-2H-pyran-4-yl)amino)pyrimidin-4-yl)-2-((4-hydroxy-4-methylpiperidin-1-yl)methyl)-1-isopropyl-3-methylquinolin-4(1H)-one] has an IC50 (CDK6/Cyclin D3) of 0.516 µM and an IC50 (CDK4/Cyclin D1) of 0.012 µM.
For `CC(C)n1c(CN2CCC[C@@]3(CCNC3=O)C2)cc(=O)c2ccc(-c3nc(N[C@@H]4CCOC[C@H]4O)ncc3F)cc21` [Example 104, (R)-7-((7-(5-fluoro-2-(((3S,4R)-3-hydroxytetrahydro-2H-pyran-4-yl)amino)pyrimidin-4-yl)-1-isopropyl-4-oxo-1,4-dihydroquinolin-2-yl)methyl)-2,7-diazaspiro[4.5]decan-1-one], the IC50 (CDK6/Cyclin D3) was 0.139 µM and the IC50 (CDK4/Cyclin D1) was 0.024 µM.
With `CC(C)n1c(CN2CCC[C@]3(CCNC3=O)C2)cc(=O)c2ccc(-c3nc(N[C@@H]4CCOC[C@H]4O)ncc3F)cc21` [Example 105, (S)-7-((7-(5-fluoro-2-(((3S,4R)-3-hydroxytetrahydro-2H-pyran-4-yl)amino)pyrimidin-4-yl)-1-isopropyl-4-oxo-1,4-dihydroquinolin-2-yl)methyl)-2,7-diazaspiro[4.5]decan-1-one] the IC50 (CDK6/Cyclin D3) was 0.291 µM and the IC50 (CDK4/Cyclin D1) was 0.0041 µM.
Work on `CC(C)n1c(CN2[C@H](C)COC[C@H]2C)cc(=O)c2ccc(-c3nc(N[C@@H]4CCOC[C@H]4O)ncc3F)cc21` [Example 106, 2-(((3R,5R)-3,5-dimethylmorpholino)methyl)-7-(5-fluoro-2-(((3S,4R)-3-hydroxytetrahydro-2H-pyran-4-yl)amino)pyrimidin-4-yl)-1-isopropylquinolin-4(1H)-one] yielded an IC50 (CDK6/Cyclin D3) of 0.298 µM and an IC50 (CDK4/Cyclin D1) of 0.0048 µM.
For `CC(C)n1c(CN2[C@H](C)COC[C@@H]2C)cc(=O)c2ccc(-c3nc(N[C@@H]4CCOC[C@H]4O)ncc3F)cc21` [Example 107, 2-(((3R,5S)-3,5-dimethylmorpholino)methyl)-7-(5-fluoro-2-(((3S,4R)-3-hydroxytetrahydro-2H-pyran-4-yl)amino)pyrimidin-4-yl)-1-isopropylquinolin-4(1H)-one], the IC50 (CDK6/Cyclin D3) was 0.34 µM and the IC50 (CDK4/Cyclin D1) was 0.0074 µM.
With `Cc1c(CN(C)C)n(C(C)C)c2cc(-c3nc(N[C@@H]4CCOC[C@H]4O)ncc3F)ccc2c1=O` [Example 108, 2-((dimethylamino)methyl)-7-(5-fluoro-2-(((3S,4R)-3-hydroxytetrahydro-2H-pyran-4-yl)amino)pyrimidin-4-yl)-1-isopropyl-3-methylquinolin-4(1H)-one] the IC50 (CDK6/Cyclin D3) was 0.392 µM and the IC50 (CDK4/Cyclin D1) was 0.014 µM.
With `Cc1c(CNC2CC2)n(C(C)C)c2cc(-c3nc(N[C@@H]4CCOC[C@H]4O)ncc3F)ccc2c1=O` [Example 109, 2-((cyclopropylamino)methyl)-7-(5-fluoro-2-(((3S,4R)-3-hydroxytetrahydro-2H-pyran-4-yl)amino)pyrimidin-4-yl)-1-isopropyl-3-methylquinolin-4(1H)-one] the IC50 (CDK6/Cyclin D3) was 0.211 µM and the IC50 (CDK4/Cyclin D1) was 0.0062 µM.
`Cc1c(CNC(C)C)n(C(C)C)c2cc(-c3nc(N[C@@H]4CCOC[C@H]4O)ncc3F)ccc2c1=O` [Example 110, 7-(5-fluoro-2-(((3S,4R)-3-hydroxytetrahydro-2H-pyran-4-yl)amino)pyrimidin-4-yl)-1-isopropyl-2-((isopropylamino)methyl)-3-methylquinolin-4(1H)-one] gave an IC50 (CDK6/Cyclin D3) of 0.567 µM and an IC50 (CDK4/Cyclin D1) of 0.0093 µM.
Molecule `Cc1c(CN[C@H]2C[C@H](F)C2)n(C(C)C)c2cc(-c3nc(N[C@@H]4CCOC[C@H]4O)ncc3F)ccc2c1=O` [Example 111, 7-(5-fluoro-2-(((3S,4R)-3-hydroxytetrahydro-2H-pyran-4-yl)amino)pyrimidin-4-yl)-2-((((1r,3R)-3-fluorocyclobutyl)amino)methyl)-1-isopropyl-3-methylquinolin-4(1H)-one] has an IC50 (CDK6/Cyclin D3) of 0.352 µM and an IC50 (CDK4/Cyclin D1) of 0.016 µM.
With `Cc1c(CN[C@@H]2CCOC2)n(C(C)C)c2cc(-c3nc(N[C@@H]4CCOC[C@H]4O)ncc3F)ccc2c1=O` [Example 112, 7-(5-fluoro-2-(((3S,4R)-3-hydroxytetrahydro-2H-pyran-4-yl)amino)pyrimidin-4-yl)-1-isopropyl-3-methyl-2-((((R)-tetrahydrofuran-3-yl)amino)methyl)quinolin-4(1H)-one] the IC50 (CDK6/Cyclin D3) was 0.615 µM and the IC50 (CDK4/Cyclin D1) was 0.015 µM.
For `Cc1c(CN[C@H]2CCOC2)n(C(C)C)c2cc(-c3nc(N[C@@H]4CCOC[C@H]4O)ncc3F)ccc2c1=O` [Example 113, 7-(5-fluoro-2-(((3S,4R)-3-hydroxytetrahydro-2H-pyran-4-yl)amino)pyrimidin-4-yl)-1-isopropyl-3-methyl-2-((((S)-tetrahydrofuran-3-yl)amino)methyl)quinolin-4(1H)-one], the IC50 (CDK6/Cyclin D3) was 0.663 µM and the IC50 (CDK4/Cyclin D1) was 0.017 µM.
`CC(C)n1c(CN2CC[C@@H](F)C2)cc(=O)c2cc(F)c(-c3nc(N[C@@H]4CCOC[C@H]4O)ncc3F)cc21` [Example 114, 6-fluoro-7-(5-fluoro-2-(((3S,4R)-3-hydroxytetrahydro-2H-pyran-4-yl)amino)pyrimidin-4-yl)-2-(((R)-3-fluoropyrrolidin-1-yl)methyl)-1-isopropylquinolin-4(1H)-one] showed an IC50 (CDK6/Cyclin D3) of 0.64 µM and an IC50 (CDK4/Cyclin D1) of 0.04 µM.
`Cc1c(CN2CCC(O)CC2)n(C(C)C)c2cc(-c3nc(N[C@@H]4CCOC[C@H]4O)ncc3F)ccc2c1=O` [Example 115, 7-(5-fluoro-2-(((3S,4R)-3-hydroxytetrahydro-2H-pyran-4-yl)amino)pyrimidin-4-yl)-2-((4-hydroxypiperidin-1-yl)methyl)-1-isopropyl-3-methylquinolin-4(1H)-one] showed an IC50 (CDK6/Cyclin D3) of 0.271 µM and an IC50 (CDK4/Cyclin D1) of 0.0066 µM.
`Cc1c(CN2CCCC(F)(F)C2)n(C(C)C)c2cc(-c3nc(N[C@@H]4CCOC[C@H]4O)ncc3F)ccc2c1=O` [Example 116, 2-((3,3-difluoropiperidin-1-yl)methyl)-7-(5-fluoro-2-(((3S,4R)-3-hydroxytetrahydro-2H-pyran-4-yl)amino)pyrimidin-4-yl)-1-isopropyl-3-methylquinolin-4(1H)-one] gave an IC50 (CDK6/Cyclin D3) of 0.176 µM and an IC50 (CDK4/Cyclin D1) of 0.0039 µM.
`Cc1c(CN2CCOCC23CC3)n(C(C)C)c2cc(-c3nc(N[C@@H]4CCOC[C@H]4O)ncc3F)ccc2c1=O` [Example 117, 2-((7-oxa-4-azaspiro[2.5]octan-4-yl)methyl)-7-(5-fluoro-2-(((3S,4R)-3-hydroxytetrahydro-2H-pyran-4-yl)amino)pyrimidin-4-yl)-1-isopropyl-3-methylquinolin-4(1H)-one] was tested, and the IC50 (CDK6/Cyclin D3) was 0.0969 µM and the IC50 (CDK4/Cyclin D1) was 0.0019 µM.
In the case of `Cc1c(CN2[C@@H](C)COC[C@@H]2C)n(C(C)C)c2cc(-c3nc(N[C@@H]4CCOC[C@H]4O)ncc3F)ccc2c1=O` [Example 118, 2-(((3S,5S)-3,5-dimethylmorpholino)methyl)-7-(5-fluoro-2-(((3S,4R)-3-hydroxytetrahydro-2H-pyran-4-yl)amino)pyrimidin-4-yl)-1-isopropyl-3-methylquinolin-4(1H)-one], the IC50 (CDK6/Cyclin D3) is reported as 0.0517 µM and the IC50 (CDK4/Cyclin D1) is reported as 0.0011 µM.
Work on `Cc1c(CO)n(C(C)C)c2cc(-c3nc(N[C@@H]4CCOC[C@H]4O)ncc3F)ccc2c1=O` [Example 119, 7-(5-fluoro-2-(((3S,4R)-3-hydroxytetrahydro-2H-pyran-4-yl)amino)pyrimidin-4-yl)-2-(hydroxymethyl)-1-isopropyl-3-methylquinolin-4(1H)-one] yielded an IC50 (CDK6/Cyclin D3) of 0.273 µM and an IC50 (CDK4/Cyclin D1) of 0.0091 µM.
Work on `Cc1c(CN)n(C(C)C)c2cc(-c3nc(N[C@@H]4CCOC[C@H]4O)ncc3F)ccc2c1=O` [Example 120, 2-(aminomethyl)-7-(5-fluoro-2-(((3S,4R)-3-hydroxytetrahydro-2H-pyran-4-yl)amino)pyrimidin-4-yl)-1-isopropyl-3-methylquinolin-4(1H)-one] yielded an IC50 (CDK6/Cyclin D3) of 0.265 µM and an IC50 (CDK4/Cyclin D1) of 0.0059 µM.
In the case of `Cc1c(CN2CCC(F)(F)CC2)n(C(C)C)c2cc(-c3nc(N[C@@H]4CCOC[C@H]4O)ncc3F)ccc2c1=O` [Example 121, 2-((4,4-difluoropiperidin-1-yl)methyl)-7-(5-fluoro-2-(((3S,4R)-3-hydroxytetrahydro-2H-pyran-4-yl)amino)pyrimidin-4-yl)-1-isopropyl-3-methylquinolin-4(1H)-one], the IC50 (CDK6/Cyclin D3) is reported as 0.113 µM and the IC50 (CDK4/Cyclin D1) is reported as 0.0047 µM.
With `Cc1c(CN2CCC[C@@H](O)C2)n(C(C)C)c2cc(-c3nc(N[C@@H]4CCOC[C@H]4O)ncc3F)ccc2c1=O` [Example 122, 7-(5-fluoro-2-(((3S,4R)-3-hydroxytetrahydro-2H-pyran-4-yl)amino)pyrimidin-4-yl)-2-(((R)-3-hydroxypiperidin-1-yl)methyl)-1-isopropyl-3-methylquinolin-4(1H)-one] the IC50 (CDK6/Cyclin D3) was 0.0688 µM and the IC50 (CDK4/Cyclin D1) was 0.0016 µM.
`Cc1c(CN2CCC[C@H](O)C2)n(C(C)C)c2cc(-c3nc(N[C@@H]4CCOC[C@H]4O)ncc3F)ccc2c1=O` [Example 123, 7-(5-fluoro-2-(((3S,4R)-3-hydroxytetrahydro-2H-pyran-4-yl)amino)pyrimidin-4-yl)-2-(((S)-3-hydroxypiperidin-1-yl)methyl)-1-isopropyl-3-methylquinolin-4(1H)-one] showed an IC50 (CDK6/Cyclin D3) of 0.129 µM and an IC50 (CDK4/Cyclin D1) of 0.0043 µM.
